# ChEMBL document CHEMBL5325456, “5-(4-Hydroxyphenyl)-3H-1,2-dithiole-3-thione derivatives of brefeldin A: Design, synthesis and cytotoxicity in MDA-MB-231 human breast cancer cells” (Bioorg Med Chem, 2023)
# Columns and labels:
# A549 = assay: Antiproliferative activity against human A549 cells assessed as reduction in cell viability incubated for 48 hrs by CCk-8 assay; format: functional, cell-based; conditions: A549, 48 h
# DU-145 = assay: Antiproliferative activity against human DU-145 cells assessed as reduction in cell viability incubated for 48 hrs by CCk-8 assay; format: functional, cell-based; conditions: DU-145, 48 h
# A-375 = assay: Antiproliferative activity against human A-375 cells assessed as reduction in cell viability incubated for 48 hrs by CCk-8 assay; format: functional, cell-based; conditions: A-375, 48 h
# HeLa = assay: Antiproliferative activity against human HeLa cells assessed as reduction in cell viability incubated for 48 hrs by CCk-8 assay; format: functional, cell-based
# HepG2 = assay: Antiproliferative activity against human HepG2 cells assessed as reduction in cell viability incubated for 48 hrs by CCk-8 assay; format: functional, cell-based; conditions: HepG2, 48 h
# MDA-MB-231 = assay: Antiproliferative activity against human MDA-MB-231 cells assessed as reduction in cell viability incubated for 48 hrs by CCk-8 assay; format: functional, cell-based; conditions: MDA-MB-231, 48 h
# [1] = Antiproliferative activity against human L02 cells assessed as reduction in cell viability incubated for 48 hrs by CCk-8 assay; format: toxicity, cell-based
# [2] = Selectivity index, ratio of IC50 for antiproliferative activity against human L02 cells to IC50 for antiproliferative activity against human MDA-MB-231 cells; format: toxicity, cell-based; conditions: L02 cells and MDA-MB-231 cells, read-out: Ratio IC50
Structure (SMILES),IC50 (A549),IC50 (DU-145),IC50 (A-375),IC50 (HeLa),IC50 (HepG2),IC50 (MDA-MB-231),IC50 at 48 h [1],selectivity ratio [2]
C[C@H]1CCC/C=C/[C@@H]2C[C@H](O)C[C@H]2[C@H](OC(=O)c2ccccc2C(=O)Oc2ccc(-c3cc(=S)ss3)cc2)/C=C/C(=O)O1,0.33 µM,> 40 µM,1.07 µM,0.3 µM,7.03 µM,1.34 µM,3.55 µM,2.64
C[C@H]1CCC/C=C/[C@@H]2C[C@H](O)C[C@H]2[C@H](OC(=O)CCC(=O)OCCOc2ccc(-c3cc(=S)ss3)cc2)/C=C/C(=O)O1,2.73 µM,1.85 µM,1.69 µM,3.47 µM,4.65 µM,1.19 µM,8.3 µM,6.97
C[C@H]1CCC/C=C/[C@@H]2C[C@H](OC(=O)CCCC(=O)OCCOc3ccc(-c4cc(=S)ss4)cc3)C[C@H]2[C@H](OC(=O)CCCC(=O)OCCOc2ccc(-c3cc(=S)ss3)cc2)/C=C/C(=O)O1,> 40 µM,> 40 µM,> 40 µM,> 40 µM,> 40 µM,> 40 µM,> 40 µM,–
C[C@H]1CCC/C=C/[C@@H]2C[C@H](OC(=O)CCCC(=O)OCCCCCCOc3ccc(-c4cc(=S)ss4)cc3)C[C@H]2[C@H](OC(=O)CCCC(=O)OCCCCCCOc2ccc(-c3cc(=S)ss3)cc2)/C=C/C(=O)O1,> 40 µM,> 40 µM,> 40 µM,> 40 µM,> 40 µM,> 40 µM,> 40 µM,–
C[C@H]1CCC/C=C/[C@@H]2C[C@H](OC(=O)CCC(=O)Oc3ccc(-c4cc(=S)ss4)cc3)C[C@H]2[C@H](OC(=O)CCC(=O)Oc2ccc(-c3cc(=S)ss3)cc2)/C=C/C(=O)O1,> 40 µM,> 40 µM,> 40 µM,> 40 µM,> 40 µM,> 40 µM,> 40 µM,–
C[C@H]1CCC/C=C/[C@@H]2C[C@H](O)C[C@H]2[C@H](OC(=O)c2ccccc2C(=O)OCCCCOc2ccc(-c3cc(=S)ss3)cc2)/C=C/C(=O)O1,> 40 µM,> 40 µM,> 40 µM,26.9 µM,> 40 µM,> 40 µM,> 80 µM,–
C[C@H]1CCC/C=C/[C@@H]2C[C@H](OC(=O)c3ccccc3C(=O)OCCCCOc3ccc(-c4cc(=S)ss4)cc3)C[C@H]2[C@H](OC(=O)c2ccccc2C(=O)OCCCCOc2ccc(-c3cc(=S)ss3)cc2)/C=C/C(=O)O1,> 40 µM,> 40 µM,> 40 µM,> 40 µM,> 40 µM,> 40 µM,> 40 µM,–
C[C@H]1CCC/C=C/[C@@H]2C[C@H](OC(=O)c3ccccc3C(=O)OCCOc3ccc(-c4cc(=S)ss4)cc3)C[C@H]2[C@H](OC(=O)c2ccccc2C(=O)OCCOc2ccc(-c3cc(=S)ss3)cc2)/C=C/C(=O)O1,> 40 µM,> 40 µM,> 40 µM,> 40 µM,> 40 µM,> 40 µM,> 40 µM,–
CC(=O)O[C@H]1C(=O)[C@@]2(C)[C@H]([C@H](OC(=O)c3ccccc3)[C@]3(O)C[C@H](OC(=O)[C@H](O)[C@@H](NC(=O)c4ccccc4)c4ccccc4)C(C)=C1C3(C)C)[C@]1(OC(C)=O)CO[C@@H]1C[C@@H]2O [PACLITAXEL],0.014 µM,–,0.059 µM,0.034 µM,0.55 µM,0.33 µM,0.13 µM,–
C[C@H]1CCC/C=C/[C@@H]2C[C@H](OC(=O)CCC(=O)OCCCCCCOc3ccc(-c4cc(=S)ss4)cc3)C[C@H]2[C@H](O)/C=C/C(=O)O1,> 40 µM,> 40 µM,> 40 µM,25.2 µM,> 40 µM,> 40 µM,> 80 µM,–
C[C@H]1CCC/C=C/[C@@H]2C[C@H](O)C[C@H]2[C@H](OC(=O)CCC(=O)OCCCCCCOc2ccc(-c3cc(=S)ss3)cc2)/C=C/C(=O)O1,1.52 µM,3.64 µM,0.64 µM,0.77 µM,3.42 µM,1.41 µM,3.26 µM,2.31
C[C@H]1CCC/C=C/[C@@H]2C[C@H](OC(=O)CCC(=O)OCCCCCCOc3ccc(-c4cc(=S)ss4)cc3)C[C@H]2[C@H](OC(=O)CCC(=O)OCCCCCCOc2ccc(-c3cc(=S)ss3)cc2)/C=C/C(=O)O1,> 40 µM,> 40 µM,> 40 µM,> 40 µM,> 40 µM,> 40 µM,> 40 µM,–
C[C@H]1CCC/C=C/[C@@H]2C[C@H](OC(=O)CCCC(=O)Oc3ccc(-c4cc(=S)ss4)cc3)C[C@H]2[C@H](OC(=O)CCCC(=O)Oc2ccc(-c3cc(=S)ss3)cc2)/C=C/C(=O)O1,> 40 µM,> 40 µM,> 40 µM,> 40 µM,> 40 µM,> 40 µM,> 40 µM,–
C[C@H]1CCC/C=C/[C@@H]2C[C@H](O)C[C@H]2[C@H](OC(=O)c2ccccc2C(=O)OCCCCCCOc2ccc(-c3cc(=S)ss3)cc2)/C=C/C(=O)O1,> 40 µM,> 40 µM,> 40 µM,> 40 µM,> 40 µM,> 40 µM,> 80 µM,–
C[C@H]1CCC/C=C/[C@@H]2C[C@H](O)C[C@H]2[C@H](OC(=O)CCCC(=O)OCCCCOc2ccc(-c3cc(=S)ss3)cc2)/C=C/C(=O)O1,1.04 µM,0.43 µM,0.93 µM,0.23 µM,0.44 µM,0.16 µM,0.43 µM,2.69
C[C@H]1CCC/C=C/[C@@H]2C[C@H](O)C[C@H]2[C@H](OC(=O)CCCC(=O)Oc2ccc(-c3cc(=S)ss3)cc2)/C=C/C(=O)O1,18.2 µM,19.5 µM,30 µM,5.3 µM,18 µM,9.65 µM,24.8 µM,2.57
C[C@H]1CCC/C=C/[C@@H]2C[C@H](OC(=O)CCC(=O)OCCCCOc3ccc(-c4cc(=S)ss4)cc3)C[C@H]2[C@H](O)/C=C/C(=O)O1,> 40 µM,> 40 µM,> 40 µM,> 40 µM,> 40 µM,> 40 µM,> 80 µM,–
C[C@H]1CCC/C=C/[C@@H]2C[C@H](O)C[C@H]2[C@H](OC(=O)c2ccccc2C(=O)OCCOc2ccc(-c3cc(=S)ss3)cc2)/C=C/C(=O)O1,> 40 µM,> 40 µM,> 40 µM,> 40 µM,> 40 µM,> 40 µM,> 80 µM,–
C[C@H]1CCC/C=C/[C@@H]2C[C@H](OC(=O)CCC(=O)OCCCCOc3ccc(-c4cc(=S)ss4)cc3)C[C@H]2[C@H](OC(=O)CCC(=O)OCCCCOc2ccc(-c3cc(=S)ss3)cc2)/C=C/C(=O)O1,> 40 µM,> 40 µM,> 40 µM,> 40 µM,> 40 µM,> 40 µM,> 40 µM,–
C[C@H]1CCC/C=C/[C@@H]2C[C@H](OC(=O)CCCC(=O)OCCCCOc3ccc(-c4cc(=S)ss4)cc3)C[C@H]2[C@H](OC(=O)CCCC(=O)OCCCCOc2ccc(-c3cc(=S)ss3)cc2)/C=C/C(=O)O1,> 40 µM,> 40 µM,> 40 µM,> 40 µM,> 40 µM,> 40 µM,> 40 µM,–
C[C@H]1CCC/C=C/[C@@H]2C[C@H](OC(=O)CCC(=O)OCCOc3ccc(-c4cc(=S)ss4)cc3)C[C@H]2[C@H](OC(=O)CCC(=O)OCCOc2ccc(-c3cc(=S)ss3)cc2)/C=C/C(=O)O1,> 40 µM,> 40 µM,> 40 µM,5.68 µM,> 40 µM,> 40 µM,> 40 µM,–
C[C@H]1CCC/C=C/[C@@H]2C[C@H](OC(=O)CCC(=O)OCCOc3ccc(-c4cc(=S)ss4)cc3)C[C@H]2[C@H](O)/C=C/C(=O)O1,> 40 µM,> 40 µM,> 40 µM,> 40 µM,> 40 µM,> 40 µM,> 80 µM,–
C[C@H]1CCC/C=C/[C@@H]2C[C@H](OC(=O)c3ccccc3C(=O)OCCCCCCOc3ccc(-c4cc(=S)ss4)cc3)C[C@H]2[C@H](OC(=O)c2ccccc2C(=O)OCCCCCCOc2ccc(-c3cc(=S)ss3)cc2)/C=C/C(=O)O1,> 40 µM,> 40 µM,> 40 µM,> 40 µM,> 40 µM,> 40 µM,> 40 µM,–
C[C@H]1CCC/C=C/[C@@H]2C[C@H](OC(=O)c3ccccc3C(=O)Oc3ccc(-c4cc(=S)ss4)cc3)C[C@H]2[C@H](OC(=O)c2ccccc2C(=O)Oc2ccc(-c3cc(=S)ss3)cc2)/C=C/C(=O)O1,> 40 µM,> 40 µM,> 40 µM,> 40 µM,> 40 µM,> 40 µM,> 40 µM,–
Oc1ccc(-c2cc(=S)ss2)cc1,27.6 µM,12.7 µM,> 40 µM,6.48 µM,13.8 µM,33.2 µM,16.8 µM,–
